Reference: publication PMC7071076, “Antibacterial Activity and Pharmacokinetic Profile of a Promising Antibacterial Agent: 22-(2-Amino-phenylsulfanyl)-22-Deoxypleuromutilin” (Molecules, 2020)
Several values for one entry are separate records, joined by “and”; a condition that tells them apart may be missing. Equal entries are not always repeated. Where two headings read alike, the source gives them in different places.

Assay: Pharmacokinetic study in mice
Format: in vivo
Conditions: for plasma concentration, individual mice: mice 1-8 in order
Description: Pharmacokinetic parameters of amphenmulin were measured according to previous reports with some modifications. Each group consisted of eight female SPF-ICR mice. Amphenmulin (1 mg/mL) was administered intravenously, intraperitoneally, and orally at a dose of 10 mg/kg, respectively. Formulation of amphenmulin was a filtered solution in 5% DMSO, 5% Tween-80, and 90% normal saline. Serial samples (each 0.2 mL) were collected from the ocular venous plexus and placed in a plastic centrifuge tube. The blood samples were placed at room temperature for 20 min and transferred to a 4 °C refrigerator for 12 h to promote blood coagulation. Then samples were centrifuged at 2000 r/min for 10 min to get serum. Serum samples were frozen at −20°C. 100 µL of samples was accurately absorbed and mixed with 100 µL of acetonitrile in a 1.5 mL centrifuge tube. The sample was mixed vigorously and centrifuged at 12,000 rpm for 10 min. The supernatant was transferred, filtered through a 0.22 μm cellulose membrane filter and used for LC-MS/MS analysis. Equipment and analysis conditions were shown in supplemental data. The pharmacokinetic parameters of amphenmulin were determined from the mean plasma concentration with noncompartmental analysis in WinNonlin 5.2 software (Pharsight, Mountain View, CA, USA). Data were shown as mean ± standard deviation (SD).

[1] = female, ICR, mouse, plasma, mice, 10 mg/kg, intravenous
[2] = female, ICR, mouse, plasma, mice, 10 mg/kg, oral

In the case of `C=C[C@]1(C)C[C@@H](OC(=O)CSc2ccccc2N)[C@]2(C)[C@H](C)CC[C@]3(CCC(=O)[C@H]32)[C@@H](C)[C@@H]1O` [Amphenmulin, 22-(2-amino-phenylsulfanyl)-22-deoxypleuromutilin], the concentration at 12 h (female, ICR, mouse, plasma, iv, 10 mg/kg, mice, intravenous 10 mg/kg, 12 h, n = 8, read-out: plasma concentration, mean ± S.D) is reported as 50 ± 10 ng/mL, the concentration at 0.25 h (female, ICR, mouse, plasma, po, 10 mg/kg, mice, oral 10 mg/kg, 0.25 h, n = 8, read-out: plasma concentration, mean ± S.D) is reported as 90 ± 50 ng/mL and the concentration at 0.5 h (female, ICR, mouse, plasma, po, 10 mg/kg, mice, oral 10 mg/kg, 0.5 h, n = 8, read-out: plasma concentration, mean ± S.D) is reported as 310 ± 110 ng/mL. For the same compound, the concentration at 1 h (female, ICR, mouse, plasma, po, 10 mg/kg, mice, oral 10 mg/kg, 1 h, n = 8, read-out: plasma concentration, mean ± S.D) was 490 ± 160 ng/mL, the concentration at 2 h (female, ICR, mouse, plasma, po, 10 mg/kg, mice, oral 10 mg/kg, 2 h, n = 8, read-out: plasma concentration, mean ± S.D) was 360 ± 210 ng/mL and the concentration at 3 h (female, ICR, mouse, plasma, po, 10 mg/kg, mice, oral 10 mg/kg, 3 h, n = 8, read-out: plasma concentration, mean ± S.D) was 220 ± 150 ng/mL. For the same compound, the concentration at 4 h (female, ICR, mouse, plasma, po, 10 mg/kg, mice, oral 10 mg/kg, 4 h, n = 8, read-out: plasma concentration, mean ± S.D) was 150 ± 80 ng/mL, the concentration at 6 h (female, ICR, mouse, plasma, po, 10 mg/kg, mice, oral 10 mg/kg, 6 h, n = 8, read-out: plasma concentration, mean ± S.D) was 80 ± 30 ng/mL and the concentration at 8 h (female, ICR, mouse, plasma, po, 10 mg/kg, mice, oral 10 mg/kg, 8 h, n = 8, read-out: plasma concentration, mean ± S.D) was 50 ± 20 ng/mL. It also gave a concentration at 12 h (female, ICR, mouse, plasma, po, 10 mg/kg, mice, oral 10 mg/kg, 12 h, n = 8, read-out: plasma concentration, mean ± S.D) of 20 ± 10 ng/mL, an AUC(0-inf) [1] of 12200 ± 1350 ng·h/mL and an MRT [1] of 2.57 ± 0.19 h. It also gave a half-life [1] of 1.92 ± 0.28 h, a Vd (female, ICR, mouse, plasma, mice, 10 mg/kg, intravenous, read-out: Vz) of 2.17 ± 0.42 L/kg and an AUC(0-inf) [2] of 1670 ± 660 ng·h/mL. It also gave a Cmax [2] of 530 ± 180 ng/mL, an MRT [2] of 4.01 ± 0.62 h and a Tmax [2] of 1.37 ± 0.74 h. For the same compound, the bioavailability [2] was 13.7%, the half-life [2] was 2.91 ± 0.81 h and the Vd/F (female, ICR, mouse, plasma, mice, 10 mg/kg, oral, read-out: Vz/F) was 28.5 ± 9.01 L/kg. The “plasma concentration, individual mice” value (intraperitoneal 10 mg/kg, 0.083 h) was 0.94 µg/mL and 0.70 µg/mL and 0.61 µg/mL and 0.48 µg/mL and 0.79 µg/mL and 1.48 µg/mL and 0.68 µg/mL and 1.14 µg/mL, the “plasma concentration, individual mice” value (intraperitoneal 10 mg/kg, 0.25 h) was 0.98 µg/mL and 1.39 µg/mL and 1.10 µg/mL and 0.89 µg/mL and 1.15 µg/mL and 2.26 µg/mL and 1.20 µg/mL and 0.78 µg/mL and the “plasma concentration, individual mice” value (intraperitoneal 10 mg/kg, 0.5 h) was 0.81 µg/mL and 1.39 µg/mL and 1.54 µg/mL and 0.58 µg/mL and 0.89 µg/mL and 1.48 µg/mL and 0.54 µg/mL and 0.61 µg/mL. The “plasma concentration, individual mice” value (intraperitoneal 10 mg/kg, 0.75 h) was 0.42 µg/mL and 0.40 µg/mL, the “plasma concentration, individual mice” value (intravenous 10 mg/kg, 0.083 h, 10 mg/kg) was 4.5 µg/mL and 3.97 µg/mL and 3.15 µg/mL and 4.2 µg/mL and 5.1 µg/mL and 3.25 µg/mL and 4.31 µg/mL and the “plasma concentration, individual mice” value (intravenous 10 mg/kg, 0.25 h, 10 mg/kg) was 3.07 µg/mL and 3.57 µg/mL and 3.78 µg/mL and 4.44 µg/mL and 3.64 µg/mL and 4.65 µg/mL and 4.18 µg/mL. For the same compound, the “plasma concentration, individual mice” value (intravenous 10 mg/kg, 0.5 h, 10 mg/kg) was 3.66 µg/mL and 3.82 µg/mL and 3.09 µg/mL and 3.18 µg/mL and 4.31 µg/mL and 3.98 µg/mL and 3.54 µg/mL, the “plasma concentration, individual mice” value (intravenous 10 mg/kg, 0.75 h, 10 mg/kg) was 3.46 µg/mL and 4.22 µg/mL and 3.49 µg/mL and 2.98 µg/mL and 4.21 µg/mL and 3.48 µg/mL and 2.31 µg/mL and the “plasma concentration, individual mice” value (intravenous 10 mg/kg, 1 h, 10 mg/kg) was 3.90 µg/mL and 3.62 µg/mL and 3.02 µg/mL and 2.02 µg/mL and 2.52 µg/mL and 2.95 µg/mL and 3.40 µg/mL and 4.09 µg/mL. The “plasma concentration, individual mice” value (intravenous 10 mg/kg, 2 h, 10 mg/kg) was 1.56 µg/mL and 1.41 µg/mL and 2.31 µg/mL and 2.00 µg/mL and 2.56 µg/mL and 2.83 µg/mL and 3.14 µg/mL and 2.61 µg/mL, the “plasma concentration, individual mice” value (intravenous 10 mg/kg, 4 h, 10 mg/kg) was 0.99 µg/mL and 1.32 µg/mL and 1.00 µg/mL and 1.10 µg/mL and 0.89 µg/mL and 0.79 µg/mL and 0.94 µg/mL and the “plasma concentration, individual mice” value (intravenous 10 mg/kg, 6 h, 10 mg/kg) was 0.31 µg/mL and 0.43 µg/mL and 0.54 µg/mL and 0.52 µg/mL and 0.29 µg/mL and 0.34 µg/mL and 0.44 µg/mL. For the same compound, the “plasma concentration, individual mice” value (intravenous 10 mg/kg, 8 h, 10 mg/kg) was 0.10 µg/mL and 0.16 µg/mL and 0.30 µg/mL and 0.24 µg/mL and 0.19 µg/mL and 0.12 µg/mL and 0.28 µg/mL and 0.32 µg/mL, the “plasma concentration, individual mice” value (intravenous 10 mg/kg, 12 h, 10 mg/kg) was 0.03 µg/mL (2×) and 0.05 µg/mL (3×) and 0.08 µg/mL and 0.04 µg/mL and 0.06 µg/mL and the CLβ/F (mice, 10 mg/kg, intraperitoneal) was 68 ± 19 mL/min/kg. It also gave a CLβ (mice, 10 mg/kg, intravenous) of 13.7 ± 1.5 mL/min/kg and a CLβ/F (mice, 10 mg/kg, oral) of 105 ± 37.7 mL/min/kg.
